From ChEMBL document CHEMBL3714740, “alpha-amino acid derivatives and medicaments containing the same as an active ingredient” (2011)
The source made the active and inactive calls. No cut-off for these calls is given here.

Columns and labels:
SW-620 = assay: Antitumor activity against human SW620 cells xenografted in nude Balb/c mouse assessed as inhibition of tumor volume at 100 mg/kg administered orally using gastric tube once daily for 17 days starting at mean tumor volume of 200 to 250 mm3; format: functional, organism-based
DU-145 = assay: Antitumor activity against human DU145 cells xenografted in nude Balb/c mouse assessed as inhibition of tumor volume at 100 mg/kg administered orally using gastric tube once daily for 14 days starting at mean tumor volume of 200 to 250 mm3; format: functional, organism-based; details: Prostate
[1] = Antiproliferative activity against human SW620 cells assessed as inhibition of cell proliferation incubated for 4 days by CCK8 assay; format: functional, cell-based; details: SW-620, 96 h

SMILES | inhibition (SW-620) | inhibition (DU-145) | IC50 [1]
CC(C)(Nc1ccc(Cl)cc1)C(=O)Nc1nc2ccc3[nH]ncc3c2s1 | Active | Active | –
CC(C)(C)C(=O)Nc1cc(NC(C)(C)C(=O)Nc2nc3ccc4[nH]ncc4c3s2)ccc1Cl | – | – | 2700 nM
CCNC(=O)c1cc(NC(C)(C)C(=O)Nc2nc3c(C(F)(F)F)cc4[nH]ncc4c3s2)ccc1Cl | – | Active | –
CNC(=O)c1cc(NC2(C(=O)Nc3nc4ccc5[nH]ncc5c4s3)CC2)ccc1Cl | Active | Active | –
CC(C)(Nc1ccc(Cl)c(OCC(O)CO)c1)C(=O)Nc1nc2c(C(F)(F)F)cc3[nH]ncc3c2s1 (configuration not stated) | – | Active | –
